This note sets out measurements from ChEMBL document CHEMBL1201862, “PubChem BioAssay data set” (2004).

Molecules are shown by their SMILES.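 48-hour exposure; five concentrations; linearly interpolated endpoints. GI50: concentration for 50% inhibition of growth.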 Active and inactive are the calls of the source. Cut-off read from the data, not from the text of the source: active = GI50 up to about 1.1 µM and inactive = higher.

Test systems include NCI-H522; SNB-19; SF-268; NCI-H23; COLO 205; SF-295; SW-620; HOP-92; U-251; EKVX; TK-10; HCT-15; RPMI-8226; MOLT-4; SK-MEL-28.
What all share (experiment): NCI-60 cell line screen, 48 h

Consider `COc1cc(CC(C(=O)O)C(=O)O)c(OC)cc1CC(C(=O)O)C(=O)O`, for which the GI50 with NCI-H522, in the assay on SNB-19, in the assay with SF-268, in the assay on NCI-H23, with COLO 205 and in the assay with SF-295 was > 100 µM (inactive) throughout. In addition, the GI50 in the assay with SW-620 was > 100 µM (inactive); in the assay on HOP-92 it was > 100 µM (inactive); in the assay with U-251, > 100 µM (inactive); in the assay on EKVX, > 100 µM (inactive); with TK-10, > 100 µM (inactive); in the assay on HCT-15, more than 100 µM. Besides, the GI50 in the assay on RPMI-8226 and in the assay with MOLT-4 was > 100 µM (inactive) each time.

For `CC(C)C(Sc1nc(-c2ccccc2)c(-c2ccccc2)[nH]1)C(=O)N/N=C/c1ccc([N+](=O)[O-])cc1` (configuration not stated), the GI50 in the assay with NCI-H522 was 15.3 µM (inactive); with SNB-19 it was 17.3 µM (inactive); with SF-268, 18.5 µM (inactive); in the assay on NCI-H23, 16.7 µM (inactive); in the assay on COLO 205, 11.3 µM (inactive); with SF-295, 15.8 µM (inactive). In addition, the GI50 is 14.3 µM (inactive) in the assay on SW-620; 10.4 µM (inactive) with HOP-92; 14.6 µM (inactive) with U-251; 20.4 µM (inactive) with EKVX; 30.1 µM (inactive) in the assay with TK-10; 15.5 µM (inactive) with SK-MEL-28. For the same compound, the GI50 in the assay on HCT-15 is 12.5 µM; in the assay on RPMI-8226, 11.5 µM (inactive); in the assay on MOLT-4 it was 1.93 µM (inactive).

Turning to `CCCCN(C)CC(C(C)=O)C(c1ccccc1)c1c(O)c2ccccc2oc1=O` (configuration not stated), the GI50 is > 100 µM (inactive) in the assay with NCI-H522; > 100 µM (inactive) in the assay with SNB-19; > 100 µM (inactive) in the assay on SF-268; 62.2 µM (inactive) in the assay on NCI-H23; > 100 µM (inactive) in the assay on COLO 205; > 100 µM (inactive) with SF-295. Also, the GI50 in the assay with SW-620 is > 100 µM (inactive); in the assay with U-251, > 100 µM (inactive); in the assay with EKVX, > 100 µM (inactive); in the assay with TK-10 it was > 100 µM (inactive); in the assay on SK-MEL-28 it was > 100 µM (inactive); in the assay with HCT-15, more than 100 µM. Moreover, the GI50 in the assay on RPMI-8226 and with MOLT-4 was > 100 µM (inactive) in each case.

Turning to `CCCCCCCCCc1cc(=O)c2ccc(O)cc2o1`, the GI50 with NCI-H522 is 31.4 µM (inactive); with SNB-19, 44.6 µM (inactive); with SF-268, 44.8 µM (inactive); in the assay on NCI-H23 it was 63.5 µM (inactive); in the assay on COLO 205, 51.4 µM (inactive); in the assay on SF-295 it was 47 µM (inactive). Moreover, the GI50 in the assay on SW-620 is 67.6 µM (inactive); in the assay with HOP-92, 16.4 µM (inactive); in the assay on U-251, 33.8 µM (inactive); in the assay on EKVX, > 100 µM (inactive); in the assay with TK-10 it was 30 µM (inactive); with SK-MEL-28, > 100 µM (inactive). Further, the GI50 in the assay with RPMI-8226 was 17.9 µM (inactive); with MOLT-4 it was 23.6 µM (inactive).

On to `COc1cc(C2c3cc4c(cc3[C@@H](OCCN(C)C)C3COC(=O)[C@H]23)OCO4)cc(OC)c1O` (some centres not stated), for which the GI50 is 0.111 µM (active) in the assay on NCI-H522; 0.207 µM (active) in the assay on SNB-19; 0.33 µM (active) in the assay on SF-268; 0.237 µM (active) in the assay on NCI-H23; 2.85 µM (inactive) with COLO 205; 0.145 µM (active) in the assay with SF-295. Further, the GI50 was 0.579 µM (active) in the assay on SW-620; 0.196 µM (active) with HOP-92; 0.0849 µM (active) with U-251; 1.65 µM (inactive) in the assay on EKVX; 1.58 µM (inactive) in the assay on TK-10; 0.993 µM (active) in the assay on SK-MEL-28. In addition, the figures for the GI50 in the assay on HCT-15, with RPMI-8226 and in the assay with MOLT-4 were 0.971 µM, 0.0472 µM (active) and 0.0165 µM (active), respectively.
